Measurements as given in patent US12329158B2, “Large-scale methods of uniformly coating packaging surfaces with a volatile antimicrobial to preserve food freshness” (AGROFRESH INC., priority 2013, dated 2025).
≈ marks a conversion by molar mass, not a printed value.

Tests used:
Aspergillus brasiliensis = assay: Headspace treatment of inoculated grains (Example 28); type: in vivo; conditions: for Fungal growth on PDA (mm): 10 mg/L headspace
Procedure: An in vivo assay is used to evaluate the ability of Compound A (1-hydroxy-5-fluoro-1, 3-dihydro-2, 1-benzoxaborole) to control fungal growth of seeds.
Grains consisting of corn, wheat, rice, rye, millet and barley are surface sterilized with 0.825% NaOCl for 1 minute and rinsed thrice with sterile distilled water. The grains are inoculated by soaking them in a 1×10^6 spores/mL suspension of Aspergillus brasiliensis for 1 minute. The excess inoculum is blotted out with a sterile paper towel before plating five seeds in a Petri plate containing 25 mL of PDA. For determination of efficacy, Compound A is diluted in acetone and added to 42.5 mm Whatman #1 filter disks (Cat. No. 1001-042) attached to the inner side of the lid in a dose dependent manner to achieve a final headspace concentration of 0.4, 2, or 10 mg/L. The acetone is permitted to evaporate for five minutes before closing plate and sealing it with parafilm. The plates are incubated at 23° C. for three days.

Botrytis cinerea = assay: Clamshells treated by sublimation; strawberries (Example 5); type: in vivo; conditions: 5 mg
Procedure: Five milligrams of Compound A was dissolved in 1 ml of ethanol prior to being uniformly administered to the interior of the clamshell by painting or spraying, and then dried for 5 minutes. After coating the clamshells with Compound A using various application techniques (i.e., sublimation, spraying, or painting), eight ethanol-washed strawberries were placed in the clamshell with stem end facing downwards. Each strawberry fruit was wounded using a T15 screwdriver tip to a uniform depth of eight mm (8 mm). […] Uninoculated strawberries were removed from their commercial package, and directly transferred into treated clamshells without any washing or inoculation steps.
Treated clamshells lids were closed, and then placed at 1° C. for an initial time period of 5 days. Clamshells were then removed from low temperature, and held for a second time period of 6 days at room temperature where the point of inoculation on the strawberry fruits was assessed for indication of disease incidence reported as a percentage (%). Severity of disease incidence was also reported.
This in vivo assay was used to evaluate the ability of Compound A to volatilize from a clamshell in order to control or inhibit fruit infection by pathogenic microorganism, Botrytis cinerea. This experiment was conducted exactly as described in Example 1, with a few exceptions. After equilibrating the clamshell overnight at 21° C., Compound A was administered to the clamshell by sublimation only. Compound A was sublimed onto the surface of the clamshell at a final treatment rate of 5 mg/clamshell. Strawberries were inoculated with Botrytis cinerea, placed within the clamshell for an initial time period of 6 days, and assessed for disease incidence and severity over a second time period of 7 days as described in Example 1.

Glomerella cingulata = assay: Volatile MIC assay (Example 11); type: cell-based; conditions: Colletotrichum gloeosporioides, G. cingulata
Procedure: A 3-mL volume of full-strength Potato Dextrose Agar (PDA) is added to each well. After cooling, 1 μL of 1×10^5 spores per mL of Botrytis cinerea, Penicillium expansum, Alternaria alternata, Glomerella cingulata, Penicillium digitatum, Monilinia fruticola, Aspergillus brasiliensis, Colletotrichum acutatum, Fusarium sambucinum, Phytophthora capsici, Geotrichum candidum, Aspergillus niger, Diplodia gossypina or Diaporthe citrii suspension is spotted onto the center of the agar. […] The headspace around the inoculum is then sealed inside the well by the film with the adhering disk containing the fungicide by inverting the plates over the treated disks and sealing to prevent any of the chemical from flaking from the disk and falling onto the inoculated agar. After 3 days of storage at 23° C., cultures are evaluated for percent growth relative to control.

OB1OCc2cc(F)ccc21 [Compound A, 5-fluoro-1,3-dihydro-1-hydroxy-2,1-benzoxaborole]
Fungal growth on PDA (mm) (Aspergillus brasiliensis; Barley): 0 mm | Fungal growth on PDA (mm) (Aspergillus brasiliensis; Corn Dry): 0 mm | Fungal growth on PDA (mm) (Aspergillus brasiliensis; Millet): 0 mm | Fungal growth on PDA (mm) (Aspergillus brasiliensis; Rice): 0 mm | Fungal growth on PDA (mm) (Aspergillus brasiliensis; Rye): 0 mm | Fungal growth on PDA (mm) (Aspergillus brasiliensis; Wheat): 0 mm | control of Aspergillus brasiliensis (Aspergillus brasiliensis; grains, headspace treatment): 100% | Gray Mold Incidence (%) (Botrytis cinerea; Inoculated Fruit, Day 0): 0.0% | Gray Mold Severity (0-4) (Botrytis cinerea; Inoculated Fruit, Day 0): 0.0 | Gray Mold Incidence (%) (Botrytis cinerea; Inoculated Fruit, Day 1): 0.0% | Gray Mold Severity (0-4) (Botrytis cinerea; Inoculated Fruit, Day 1): 0.0 | Gray Mold Incidence (%) (Botrytis cinerea; Inoculated Fruit, Day 2): 0.0% | Gray Mold Severity (0-4) (Botrytis cinerea; Inoculated Fruit, Day 2): 0.0 | Gray Mold Incidence (%) (Botrytis cinerea; Inoculated Fruit, Day 3): 0.0% | Gray Mold Severity (0-4) (Botrytis cinerea; Inoculated Fruit, Day 3): 0.0 | Gray Mold Incidence (%) (Botrytis cinerea; Inoculated Fruit, Day 4): 0.0% | Gray Mold Severity (0-4) (Botrytis cinerea; Inoculated Fruit, Day 4): 0.0 | Gray Mold Incidence (%) (Botrytis cinerea; Inoculated Fruit, Day 5): 16.7% | Gray Mold Severity (0-4) (Botrytis cinerea; Inoculated Fruit, Day 5): 0.1 | Gray Mold Incidence (%) (Botrytis cinerea; Inoculated Fruit, Day 6): 18.8% | Gray Mold Severity (0-4) (Botrytis cinerea; Inoculated Fruit, Day 6): 0.2 | Gray Mold Incidence (%) (Botrytis cinerea; Inoculated Fruit, Day 7): 16.7% | Gray Mold Severity (0-4) (Botrytis cinerea; Inoculated Fruit, Day 7): 0.3 | Gray Mold Incidence (%) (Botrytis cinerea; Uninoculated Fruit, Day 0): 0.0% | Gray Mold Severity (0-4) (Botrytis cinerea; Uninoculated Fruit, Day 0): 0.0 | Gray Mold Incidence (%) (Botrytis cinerea; Uninoculated Fruit, Day 1): 2.6% | Gray Mold Severity (0-4) (Botrytis cinerea; Uninoculated Fruit, Day 1): 0.4 | Gray Mold Incidence (%) (Botrytis cinerea; Uninoculated Fruit, Day 2): 0.1% | Gray Mold Severity (0-4) (Botrytis cinerea; Uninoculated Fruit, Day 2): 1.0 | Gray Mold Incidence (%) (Botrytis cinerea; Uninoculated Fruit, Day 3): 26.3% | Gray Mold Severity (0-4) (Botrytis cinerea; Uninoculated Fruit, Day 3): 1.0 | Gray Mold Incidence (%) (Botrytis cinerea; Uninoculated Fruit, Day 4): 34.1% | Gray Mold Severity (0-4) (Botrytis cinerea; Uninoculated Fruit, Day 4): 1.0 | Gray Mold Incidence (%) (Botrytis cinerea; Uninoculated Fruit, Day 5): 40.0% | Gray Mold Severity (0-4) (Botrytis cinerea; Uninoculated Fruit, Day 5): 1.3 | Gray Mold Incidence (%) (Botrytis cinerea; Uninoculated Fruit, Day 6): 43.3% | Gray Mold Severity (0-4) (Botrytis cinerea; Uninoculated Fruit, Day 6): 1.3 | Gray Mold Incidence (%) (Botrytis cinerea; Uninoculated Fruit, Day 7): 54.1% | Gray Mold Severity (0-4) (Botrytis cinerea; Uninoculated Fruit, Day 7): 1.6 | MIC (Glomerella cingulata): 17.9 µg/mL (≈ 118 µM)
